From paper PMC3859622, “Functional Characterization of ECP-Heparin Interaction: A Novel Molecular Model” (PLoS ONE, 2013)
Residue numbers refer to the chain shown, from its start. Numbers in names are those of the source. Where “and” joins values, the source holds several entries; their conditions need not be identical. Equal values may be shown once. Read-outs that look alike come from different tables or passages of the source.

Assays:
[1] = biological target: T1, ECP R105A (Homo sapiens, UniProt P12724, R132A); assay: ITC of heparins with ECP R105A; type: binding; conditions: ITC 25 °C, PBS pH 7.4
T1 sequence (P12724 28-160 R132A): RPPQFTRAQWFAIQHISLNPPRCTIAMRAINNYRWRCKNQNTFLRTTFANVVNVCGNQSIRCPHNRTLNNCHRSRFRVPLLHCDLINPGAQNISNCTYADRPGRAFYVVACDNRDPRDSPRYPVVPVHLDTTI
Method: (§1) Thermodynamic analysis of wtECP and mutant ECPs to bind heparin was performed using a MicroCal iTC200 calorimeter (MicroCal, Northampton, USA) [38]. ECP was dialyzed against PBS before use and the same buffer was used to prepare heparin solutions. All experiments were performed at 25 °C, using ECP (20 μM, as protein) and heparin (200 μM). The protein solution was placed in a calorimeter cell and the heparin solution was loaded into the syringe injector. In individual titration, auto-controlled microsyringe injected 2 μL heparin solution into the protein solution with an interval of 120 sec. The integrated heat change was analyzed by means of non-linear regression using the MicroCal Origin software, and enthalpy change (ΔH), dissociation constant (K D), and stoichiometry value (N = X/M) were obtained from a single sigmoidal titration curve [39]. […] The effect of dilution of the heparin solution in the titration cell was removed by subtracting calorimetric data for a blank titration, which consisted of titration of heparin solution into PBS.

[2] = test system: EDN K38A; design: method as in earlier work; conditions: calculated, Hep6 docked to EDN K38A; cited from earlier work
[3] = test system: EDN W7A; design: method as in earlier work; conditions: calculated, Hep6 docked to EDN W7A; cited from earlier work
[4] = test system: EDN Q14A; design: method as in earlier work; conditions: calculated, Hep6 docked to EDN Q14A; cited from earlier work
[5] = test system: EDN Q40A; design: method as in earlier work; conditions: calculated, Hep6 docked to EDN Q40A; cited from earlier work
[6] = biological target: T2, ECP H64A (Homo sapiens, UniProt P12724, H91A); assay: ITC of heparins with ECP H64A; type: binding; conditions: ITC 25 °C, PBS pH 7.4
T2 sequence (P12724 28-160 H91A): T1 sequence (P12724 28-160 R132A) with H64A, A105R
Method: as §1

[7] = biological target: T3, ECP Q40A (Homo sapiens, UniProt P12724, Q67A); assay: ITC of heparins with ECP Q40A; type: binding; conditions: ITC 25 °C, PBS pH 7.4
T3 sequence (P12724 28-160 Q67A): T1 sequence (P12724 28-160 R132A) with Q40A, A105R
Method: as §1

[8] = test system: EDN; conditions: calculated, cited from earlier work
[9] = biological target: T4, ECP Q40A/H64A (Homo sapiens, UniProt P12724, H91A/Q67A); assay: ITC of heparins with ECP Q40A/H64A; type: binding; conditions: ITC 25 °C, PBS pH 7.4
T4 sequence (P12724 28-160 Q67A/H91A): T1 sequence (P12724 28-160 R132A) with Q40A, H64A, A105R
Method: as §1

[10] = test system: EDN H15A; design: method as in earlier work; conditions: calculated, Hep6 docked to EDN H15A; cited from earlier work
[11] = test system: EDN R132A; design: method as in earlier work; conditions: calculated, Hep6 docked to EDN R132A; cited from earlier work
[12] = biological target: T5, wtECP (Homo sapiens, UniProt P12724); assay: ITC of heparins with wtECP; type: binding; conditions: ITC 25 °C, PBS pH 7.4
T5 construct: His6 (C); made in house; host or cells: Escherichia coli BL21 (DE3) CodonPlus
T5 sequence (P12724 28-160): T1 sequence (P12724 28-160 R132A) with A105R
Method: as §1

[13] = test system: EDN N39A; design: method as in earlier work; conditions: calculated, Hep6 docked to EDN N39A; cited from earlier work
[14] = test system: EDN W10A; design: method as in earlier work; conditions: calculated, Hep6 docked to EDN W10A; cited from earlier work
[15] = test system: EDN Q34A; design: method as in earlier work; conditions: calculated, Hep6 docked to EDN Q34A; cited from earlier work
[16] = test system: EDN H129A; design: method as in earlier work; conditions: calculated, Hep6 docked to EDN H129A; cited from earlier work
[17] = test system: EDN R36A; design: method as in earlier work; conditions: calculated, Hep6 docked to EDN R36A; cited from earlier work
[18] = test system: EDN L130A; design: method as in earlier work; conditions: calculated, Hep6 docked to EDN L130A; cited from earlier work
[19] = design: method as in PMID 9357326; conditions: relative to EDN; cited from earlier work
[20] = test system: yeast tRNA; assay: Ribonuclease activity, yeast tRNA digestion; type: biochemical; conditions: yeast tRNA cleavage, 37 °C, 15 min, pH 7.4
Method: Ribonuclease activities of recombinant wtECP and mutant ECPs were measured using yeast tRNA (Invitrogen, USA) digestion method, using bovine pancreatic RNaseA (USB, USA) as positive control. Three hundred microliters of 100 mM sodium phosphate buffer, pH 7.4, and 500 μl diethylpyrocarbonate-ddH2O were mixed with 50 μl 0.05 μM RNaseA and 5 μM wtECP or each mutant ECP separately. Ten microliters of 5 mg/ml yeast tRNA was added and incubated at 37 °C for 0, 5, 10 and 15 min. Ice-cold 500 μl stop solution (1:1, v/v, 40 mM lanthanum nitrate and 6% perchloric acid) was added and shaken for 10 min to stop reaction. Intact yeast tRNA was […] by centrifugation at 16,100 × g at 25 °C for 5 min. One hundred microliters of supernatant in each tube was placed on to a 96-well plate. The amount of soluble tRNA in supernatant was determined by A260 nm. The calculation has been described previously.

[21] = test system: yeast tRNA; design: method as in PMID 9649619; conditions: cited from earlier work

O=C(O)[C@@H]1O[C@@H](O[C@H]2[C@H](O)[C@@H](NS(=O)(=O)O)[C@@H](O[C@H]3[C@H](O)[C@@H](OS(=O)(=O)O)C(O)O[C@H]3C(=O)O)O[C@@H]2COS(=O)(=O)O)[C@H](OS(=O)(=O)O)[C@@H](O)[C@@H]1O[C@H]1O[C@H](COS(=O)(=O)O)[C@@H](O[C@@H]2O[C@@H](C(=O)O)[C@@H](O[C@H]3O[C@H](COS(=O)(=O)O)[C@@H](O)[C@H](O)[C@H]3NS(=O)(=O)O)[C@H](O)[C@H]2OS(=O)(=O)O)[C@H](O)[C@H]1NS(=O)(=O)O (stereo partly drawn) [Hep6, [GlcNS(6S)-IdoA(2S)]3]
N (sites) [1]: 2.81 ± 0.1 sites | TΔS [1]: 3.3 ± 0.1 kcal/mol | ΔG [1]: -7.9 kcal/mol and -7.9 ± 0.2 kcal/mol | ΔH [1]: -4.4 ± 0.2 kcal/mol | Binding energy [2]: -8.66 kcal/mol | Binding energy [3]: -8.93 kcal/mol | Binding energy [4]: -8.81 kcal/mol | Binding energy [5]: -8.50 kcal/mol | N (sites) [6]: 2.74 ± 0.3 sites | TΔS [6]: 2 ± 0.3 kcal/mol | ΔG [6]: -7.7 kcal/mol and -7.7 ± 0.4 kcal/mol | ΔH [6]: -5.8 ± 0.4 kcal/mol | N (sites) [7]: 1.7 ± 0.1 sites | TΔS [7]: 3.2 ± 0.2 kcal/mol | ΔG [7]: -7.6 kcal/mol and -7.6 ± 0.2 kcal/mol | ΔH [7]: -4.4 ± 0.3 kcal/mol | Binding energy ([8]; Hep6 docked to wild type EDN, previous docking simulation data): -9.27 kcal/mol | Contribution ([8]; contribution of EDN H15 to Hep6 binding energy): -0.34 kcal/mol | Contribution ([8]; contribution of EDN K38 to Hep6 binding energy): -0.61 kcal/mol | Contribution ([8]; contribution of EDN L130 to Hep6 binding energy): -0.08 kcal/mol | Contribution ([8]; contribution of EDN N39 to Hep6 binding energy): -0.29 kcal/mol | Contribution ([8]; contribution of EDN Q14 to Hep6 binding energy): -0.46 kcal/mol | Contribution ([8]; contribution of EDN Q34 to Hep6 binding energy): -0.39 kcal/mol | Contribution ([8]; contribution of EDN Q40 to Hep6 binding energy): -0.77 kcal/mol | Contribution ([8]; contribution of EDN R36 to Hep6 binding energy): -0.56 kcal/mol | Contribution ([8]; contribution of EDN R132 to Hep6 binding energy): -0.46 kcal/mol | Contribution ([8]; contribution of EDN W7 to Hep6 binding energy): -0.34 kcal/mol | Contribution ([8]; contribution of EDN W10 to Hep6 binding energy): -0.39 kcal/mol | Contribution ([8]; contribution of EDN residue printed H120 (row H129A) to Hep6 binding energy): -0.22 kcal/mol | N (sites) [9]: 2.45 ± 0.1 sites | TΔS [9]: 3.7 ± 0.1 kcal/mol | ΔG [9]: -7.5 kcal/mol and -7.5 ± 0.1 kcal/mol | ΔH [9]: -3.9 ± 0.2 kcal/mol | Binding energy [10]: -8.93 kcal/mol | Binding energy [11]: -8.81 kcal/mol | N (sites) [12]: 1.77 ± 0.1 sites | TΔS [12]: 4.8 ± 0.1 kcal/mol | ΔG [12]: -7.8 kcal/mol and -7.8 ± 0.1 kcal/mol | Binding energy [13]: -8.98 kcal/mol | Binding energy [14]: -8.88 kcal/mol | Binding energy [15]: -8.88 kcal/mol | Binding energy [16]: -9.05 kcal/mol | Binding energy [17]: -8.71 kcal/mol | Binding energy [18]: -9.19 kcal/mol

B1: wtECP: recombinant wild type human eosinophil cationic protein with C-terminal His6 tag, refolded from E. coli (protein, UniProt P12724 28-160, looked up)
Eosinophil cationic protein: T1 sequence (P12724 28-160 R132A) with A105R
modifications: C-terminal His6 tag
Ribonucleolytic activity of EDN [19]: 1% | RNase activity [20]: 0.0049 soluble tRNA/pmol and 0.0049 ± 0.0001 soluble tRNA/pmol

B2: H64A: single mutant recombinant ECP, His64 to Ala (protein, UniProt P12724 28-160, looked up, variant H64A)
Eosinophil cationic protein: T1 sequence (P12724 28-160 R132A) with H64A, A105R
RNase activity [20]: 0.0068 soluble tRNA/pmol and 0.0068 ± 0.0001 soluble tRNA/pmol

B3: Q40A: single mutant recombinant ECP, Gln40 to Ala (protein, UniProt P12724 28-160, looked up, variant Q40A)
Eosinophil cationic protein: T1 sequence (P12724 28-160 R132A) with Q40A, A105R
RNase activity [20]: 0.0043 soluble tRNA/pmol and 0.0043 ± 0.0001 soluble tRNA/pmol

B4: R105A: single mutant recombinant ECP, Arg105 to Ala (protein, UniProt P12724 28-160, looked up, variant R105A)
Eosinophil cationic protein: T1 sequence (P12724 28-160 R132A)
RNase activity [20]: 0.0032 soluble tRNA/pmol and 0.0032 ± 0.0002 soluble tRNA/pmol

B5: Q40A/H64A: double mutant recombinant ECP, Gln40 and His64 to Ala (protein, UniProt P12724 28-160, looked up, variant Q40A H64A)
Eosinophil cationic protein: T1 sequence (P12724 28-160 R132A) with Q40A, H64A, A105R
RNase activity [20]: 0.0056 soluble tRNA/pmol and 0.0056 ± 0.0002 soluble tRNA/pmol

B6: Bovine RNase A: bovine pancreatic RNaseA (USB), positive control (protein, UniProt P61823 27-150, looked up)
Ribonuclease pancreatic: KETAAAKFERQHMDSSTSAASSSNYCNQMMKSRNLTKDRCKPVNTFVHESLADVQAVCSQKNVACKNGQTNCYQSYSTMSITDCRETGSSKYPNCAYKTTQANKHIIVACEGNPYVPVHFDASV
RNase activity, reported number [21]: 1.208 soluble tRNA/pmol | RNase activity [20]: 1.1710 ± 0.0131 soluble tRNA/pmol | RNase activity ([20]; listed as bovine RNaseA): 1.171 soluble tRNA/pmol
